Consider four compounds from ChEMBL document CHEMBL1150713, “Bioactive stilbenes of Scirpus maritimus” (J Nat Prod, 1987).

SMILES strings stand for the structures. In brackets after ≈: the same amount, converted by molar mass.

Data set [1] is described as follows: Toxicity in Artemia salina. The class given is organism-based. Particulars: in vivo.
The next data set concerns Spodoptera frugiperda. Kind of data set: Antifeedant activity against Spodoptera frugiperda assessed as feeding ratio for 5 seconds. The class given is functional.
The subject of data set [2] is Agrobacterium tumefaciens. In words: Antitumor activity against Agrobacterium tumefaciens-induced crown gall tumor assessed as tumor inhibition in potato tubers by potato disk assay relative to control. It counts as functional.
The nature of data set [3]: Cytotoxicity against mouse 3PS cells xenografted in mouse at 35 mg/kg relative to control. The class given is functional.
The nature of data set [4]: Cytotoxicity against mouse 3PS cells xenografted in mouse at 37 mg/kg relative to control. It counts as functional.
In data set [5] the test system is Agrobacterium tumefaciens. Kind of data set: Effect on Agrobacterium tumefaciens-induced crown gall tumor in potato tubers by potato disk assay relative to control. It counts as functional.
The nature of data set [6]: Cytotoxicity against mouse 3PS cells xenografted in mouse at 30 mg/kg relative to control. It counts as functional.
The nature of data set [7]: Cytotoxicity against mouse 3PS cells xenografted in mouse at 18 mg/kg relative to control. It counts as functional.

`Oc1cc(O)cc(/C=C/c2ccc(O)c(O)c2)c1` [PICEATANNOL] showed a median lethal concentration (LC50) in data set [1] of 278 µg/mL (≈ 1140 µM). In the data set on Spodoptera frugiperda, the Ratio amounted to 0.38. For the same compound, in data set [2], the “inhibition (INH)” value was 17%. The T/C in data set [3] is reported as 131%.

In data set [4], `Oc1ccc(/C=C/c2cc(O)cc(O)c2)cc1` [RESVERATROL] gave a T/C of 100%. This compound also displayed an Activity in data set [5] of 39%.

Consider `Oc1ccc(/C=C/c2cc(O)cc3c2[C@H](c2cc(O)cc(O)c2)[C@@H](c2ccc(O)c(O)c2)O3)cc1` [SCIRPUSIN A], for which the LC50 in data set [1] was 488 µg/mL (≈ 1040 µM). The Ratio in the data set on Spodoptera frugiperda was determined as 1. For the same compound, in data set [6], the T/C came out at 103%. In data set [5], the Activity was 17%.

As to `Oc1cc(O)cc(C2c3c(/C=C/c4ccc(O)c(O)c4)cc(O)cc3OC2c2ccc(O)c(O)c2)c1` (centres undefined) [SCIRPUSIN B], the LC50 in data set [1] was 389 µg/mL (≈ 800 µM). Further, the Ratio with Spodoptera frugiperda is recorded as 0.23. Moreover, the “inhibition (INH)” value in data set [2] is 40%. In data set [7], this compound came in with a T/C of 99%.

Broadly, the LC50 is the concentration lethal to half of the exposed cells or organisms. Read a low LC50 as a more lethal substance. Broadly, the T/C is the ratio of treated to control.
